The subject of one assay is PDH. As to the kind of experiment: PDH phosphorylation in patient blood samples before and after CPI-613 infusion. In kind it is in vivo, human. The settings on record: three patients. The procedure:
(§1) Several patients had blood samples taken before and after CPI-613 infusion. […] The role of AMPK in response was assessed by competition assays using Cas-9 expressing AML cells that have deleted AMPK (FIG. 9B).

The test system of the next assay is AMPK. Nature of the assay: AMPK phosphorylation blot of patient mononuclear cells after CPI-613 infusion. In kind it is in vivo, human. Particulars: two patients, day one after infusion. On the procedure: (§2) FIGS. 9A-9C. AMPK Contributes to Resistance to CPI-613. (FIG. 9A) CPI-613 induces AMPK phosphorylation. Blood samples were taken on day one of treatment at the indicated time points following infusion of CPI-613. Red blood cells were lysed, and mononuclear cells were isolated. Extracts were prepared and blotted for phosphorylated AMPK. Both patients had circulating blasts at the time of sampling. Actin was used as a loading control. (FIG. 9B) Competition assay. Cas9 expressing MFL2 cells were partially infected with an sgRNA vector targeting AMPK tagged with GFP. Cells were incubated with the indicated drug for 72 hours and the % GFP+determined in the viable population. (FIG. 9C) Viability assay. Clones of Cas9 expressing MFL2 cells with sgRNAs targeting AMPK or ROSA26 were incubated with the indicated drug for 72 hours and viability determined.
as §1

Assay [1] deals with relapsed or refractory AML. Nature of the assay: Phase I study of CPI-613 in combination with high dose cytarabine and mitoxantrone. In kind it is in vivo, human. An excerpt:
FIGS. 8A-8B. Survival compared to historical cohort. CPI-HAM survival in the evaluable population compared to a historical cohort. (FIG. 8A) Kaplan-Meier curve of overall survival of elderly AML patients treated with high dose cytarabine, mitoxantrone, and CPI-613 (CPI-HAM) or a historical cohort of poor risk relapsed or refractory patients treated with high dose cytarabine, mitoxantrone, and asparaginase (HAMA). (FIG. 8B) Kaplan-Meier curve of overall survival of poor risk, relapsed or refractory AML patients treated with high dose cytarabine, mitoxantrone, and CPI-613 (CPI-HAM) or a historical cohort of poor risk relapsed or refractory patients treated with high dose cytarabine, mitoxantrone, and asparaginase (HAMA). Kaplan-Meier estimates were compared by log-rank test.
In a recently completed phase I study, CPI-613 was given in combination with high dose cytarabine and mitoxantrone to patients with relapsed or refractory AML (FIGS. 6-7). In this trial, 67 patients were enrolled and 62 were evaluable. […] The median age was 60 years (range 21-79). In patients with relapsed disease the median duration of CR1 was 11.2 months. Cytogenetics were poor risk in 27 patients, intermediate in 33, and good in 6. In the 62 evaluable patients the results were as follows. The overall response rate was 50% (26CR+5CRi) with a median survival of 6.7 months. […] When compared to historical controls treated with the same chemotherapy without CPI-613 an increase in response rate was seen. […] Additionally, the median survival of the historical patients was only 2.8 months while the median survival in the CPI-613 treated patients was 5.5 months (FIG. 8B). […] In patients >60 years old the CR/CRi rate was 47% (15/32) with a median survival of 6.9 months (FIG. 8A).

Assay [2] relates to AMPK deleted MFL2 AML cells. As to the kind of experiment: Competition assay, Cas9 expressing MFL2 cells with sgRNA targeting AMPK. In kind it is cell-based. Particulars: 72 hours with drug, % GFP+ in the viable population. The procedure: as §2, §1
A further assay has as its system AML cell lines. Nature of the assay: AML cell growth under mitochondrial inhibition. In kind it is cell-based, human and murine. Particulars: for AML cell growth: multiple human and murine cell lines, single agent.
A further assay relates to Baf3-p210 cells. Nature of the assay: Survival of Balb/c mice injected with Baf3-p210 cells. In kind it is in vivo. Particulars: CPI at 250 mg/kg plus Doxorubicin at 3 mg/kg, day 3. On the procedure:
FIG. 4. […] Balb/c mice were injected with Baf3-p210 cells and on day 3 treated with saline (control), Doxorubicin at 3 mg/kg or CPI at 250 mg/kg plus doxorubicin. Dox=Doxorubicin, CPI=CPI-613. P value shown is for Dox vs CPI-Dox.

The subject of a further assay is Murine AML cells (M1p5). As to the kind of experiment: Viability of M1p5 AML cells expressing p53 shRNA or vector control. In kind it is cell-based. The settings on record: 72 hours; for response of p53 shRNA cells compared to vector controls (viability): single agent. The procedure:
FIGS. 10A-10C. CPI-613 induces chemotherapy sensitivity in p53 suppressed AML cells. (FIG. 10A) Murine AML cells (M1p5) expressing an shRNA against p53 (p53 shRNA) or vector control (GFP Control) were exposed to the indicated amount of CPI-613 (in μmoles). After 72 hours viability was determined and compared to untreated cells. (FIG. 10B) Murine AML cells (M1p5) expressing an shRNA against p53 (p53 shRNA) or vector control (GFP Control) were exposed to the indicated amount of doxorubicin (in nmoles). After 72 hours viability was determined and compared to untreated cells. (FIG. 10C) Murine AML cells (M1p5) expressing an shRNA against p53 (p53 shRNA) or vector control (GFP Control) were exposed to 50 μM CPI-613 and 2.5, 5, or 10 nM Doxorubicin for 72 hours. Following exposure viability was assessed and compared to untreated cells.
Loss of p53 is associated with poor risk cytogenetics, poor prognosis and resistance to chemotherapy but not resistance to CPI-613. In AML patients poor risk karyotypes are associated with p53 loss or mutation in 70-80% of cases (13, 29). Indeed it has been argued that much of the prognostic importance of poor risk karyotypes is mediated by p53 loss (13). This is not surprising given the association between p53 status and response to chemotherapy in AML (30). In order to assess the consequences of p53 suppression on mitochondrial inhibition we generated murine AML cells that knocked down p53 by shRNA.

For assay [3], the system named is advanced myeloid malignancies. The settings on record: single agent; heavily pre-treated cohort; cited from earlier work.
The test system of the next assay is K562 cells. As to the kind of experiment: Oxygen consumption rate after Ara-C, K562. In kind it is cell-based. Particulars: Ara-C for 16 hours. On the procedure: (§3) FIGS. 2A-2B. […] K562 cells (FIG. 2A) and OCI-AML3 (FIG. 2B) and were treated with Ara-C for 16 hours and oxygen consumption rate (OCR) was assessed. Shown is the average OCR from 3 independent experiments each done in triplicate. P value for OCI-AML3 is 0.0387 and for K562 is <0.0001.

A further assay deals with OCI-AML3. Nature of the assay: Oxygen consumption rate after Ara-C, OCI-AML3. In kind it is cell-based. The settings on record: Ara-C for 16 hours. On the procedure:
as §3

[4] abbreviates: 62 evaluable patients, CPI-613 with high dose cytarabine and mitoxantrone.

Take `O=C(O)CCCCC(CCSCc1ccccc1)SCc1ccccc1` (stereo not shown) [CPI-613]: the “phosphorylation of PDH” value in the assay on PDH is recorded as “increased phosphorylation of PDH”. Further, the “phosphorylation of AMPK” value in the assay with AMPK is on record as “robust phosphorylation of AMPK”. In [1] (setting [4]), the median survival is given as 6.7 months and the “overall response rate (CR+CRi)” value amounted to 50%. The “CR/CRi rate, patients >60 years old” value in assay [1] (patients >60 years old (15/32)) is given as 47%. Besides, the “median survival, patients >60 years old” value in assay [1] (patients >60 years old (FIG. 8A)) is listed as 6.9 months. Also, the “median survival for all others” value in assay [1] (patients without response, CPI-613 with high dose cytarabine and mitoxantrone) worked out at 3 months. Besides, the “median survival, poor risk” value in [1] (poor risk CPI-613 treated patients (FIG. 8B)) was found to be 5.5 months. In assay [1] (poor risk cytogenetics (9CR+2CRi/24), CPI-613 with high dose cytarabine and mitoxantrone), the “response rate, poor risk cytogenetics” value turned out to be 46%. Further, the “response rate versus historical controls, poor risk disease” value in assay [1] (poor risk disease, compared with the same chemotherapy without CPI-613) is “more than doubled”. Besides, in assay [1] (responders, CPI-613 with high dose cytarabine and mitoxantrone), the “median survival in responders” value was determined as 13.2 months. For the same molecule, the “competition of normal versus AMPK deleted cells” value in assay [2] is given as “Normal cells out-competed AMPK deleted cells”. Also, the AML cell growth entry in the assay with AML cell lines is “impairs AML cell growth”. The “combination effect of metformin and CPI-613” value in the assay with AML cell lines (the two together) was “synergistic in vitro and in vivo”. In the assay on Baf3-p210 cells, the “combination effect with doxorubicin in vivo” value was “acts synergistically with doxorubicin in vivo”. Besides, in the assay on Murine AML cells (M1p5) (50 μM CPI-613 and 2.5, 5, or 10 nM Doxorubicin), the “sensitivity of p53 shRNA cells to doxorubicin in presence of CPI-613” value was “increased sensitivity to doxorubicin to that of the controls”. The “response of p53 shRNA cells compared to vector controls (viability)” value in the assay with Murine AML cells (M1p5) is “no change in response”. The overall response rate in [3] is on record as 29%.

As for `Nc1ccn([C@@H]2O[C@H](CO)[C@@H](O)[C@@H]2O)c(=O)n1` [cytarabine], the “oxygen consumption rate (OCR)” value in the assay with K562 cells and with OCI-AML3 was “induces mitochondrial metabolism” in each case.

As for `COc1cccc2c1C(=O)c1c(O)c3c(c(O)c1C2=O)C[C@@](O)(C(=O)CO)C[C@@H]3O[C@H]1C[C@H](N)[C@H](O)[C@H](C)O1` [doxorubicin], the “response of p53 shRNA cells compared to vector controls (viability)” value in the assay on Murine AML cells (M1p5) is “significantly resistant”.

Regarding `CN(C)C(=N)N=C(N)N` [metformin], in the assay on AML cell lines, the AML cell growth result was “impairs AML cell growth”.

(Values after patent publication US20200063210A1, “Gene Expression Signatures Associated with Patient Response to Acute Myeloid Leukemia Treatment and Use Thereof for Predicting Response to Therapy” (WAKE FOREST UNIVERSITY HEALTH SCIENCES, priority 2016, published 2020).)
